Experimental data taken from PubChem BioAssay (NCI).
Values joined by “and” are separate entries in the source; they are usually repeats but may differ in a detail not shown here. Equal values may be shown once.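 Test compounds were applied to cells in 96-well plates for 48 hours at 5 doses. GI50 is the concentration that inhibits growth by half. TGI is the concentration that stops growth completely.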

How the values were obtained:
Experiment in all cases: DTP human tumour cell line panel, 48 h
DU-145 prostate = system: DU-145 prostate
MCF7 breast = system: MCF7 breast
MOLT-4 leukemia = system: MOLT-4 leukemia
A549 NSCLC = system: A549 NSCLC
SK-OV-3 ovarian = system: SK-OV-3 ovarian
M14 melanoma = system: M14 melanoma
SN12C renal = system: SN12C renal
HCT-15 colon = system: HCT-15 colon
U251 CNS = system: U251 CNS
SNB-19 CNS = system: SNB-19 CNS

Row | SMILES | GI50 (DU-145 prostate) | TGI (DU-145 prostate) | GI50 (MCF7 breast) | TGI (MCF7 breast) | GI50 (MOLT-4 leukemia) | TGI (MOLT-4 leukemia) | GI50 (A549 NSCLC) | TGI (A549 NSCLC) | GI50 (SK-OV-3 ovarian) | TGI (SK-OV-3 ovarian) | GI50 (M14 melanoma) | TGI (M14 melanoma) | GI50 (SN12C renal) | TGI (SN12C renal) | GI50 (HCT-15 colon) | TGI (HCT-15 colon) | GI50 (U251 CNS) | TGI (U251 CNS) | GI50 (SNB-19 CNS) | TGI (SNB-19 CNS)
1 | CC(C)c1cnn2c(NCc3ccccc3)cc(NC[C@H]3CCNC[C@@H]3O)nc12 | 0.4 µM and 0.309 µM | 11.4 µM and 9.62 µM | 0.13 µM and 0.186 µM | 4.83 µM and 4.03 µM | 0.361 µM and 0.504 µM | 10.2 µM and 14 µM | 0.342 µM and 0.272 µM | 11.9 µM and 7.97 µM | 4.71 µM and 3.41 µM | 15.1 µM and 16.5 µM | 0.586 µM and 0.688 µM | 2.25 µM and 2.2 µM | 0.327 µM and 0.378 µM | 10.5 µM and 6.49 µM | 2.94 µM and 2.69 µM | 15.2 µM and 12.2 µM | 0.378 µM and 0.382 µM | 10.7 µM and 10.4 µM | 0.495 µM and 0.611 µM | 9.76 µM and 8.48 µM
2 | NS(=O)(=O)c1ccc(-n2nc3c(c2-c2ccc(Cl)cc2)Cc2ccccc2-3)cc1 | 15.1 µM | 33 µM | 22.9 µM | 54.8 µM | 5.51 µM | 23.1 µM | 37.8 µM | > 100 µM | 77.1 µM | > 100 µM | 13.1 µM | 31.5 µM | 5.49 µM | 18.3 µM | 19.7 µM | 38.4 µM | 19.5 µM | 37.3 µM | 31.7 µM | > 100 µM
3 | Cn1c(-c2c(N)n(Nc3cccc(Cl)c3)c3nc(C#N)c(C#N)nc23)nc2ccccc21 | 6.46 µM | 15.4 µM | 4.96 µM | > 50 µM | > 50 µM | > 50 µM | 10.9 µM | 35.4 µM | 13.4 µM | 43 µM | 6.51 µM | 20 µM | 5.15 µM | 12.5 µM | 3.45 µM | 17.2 µM | 7.92 µM | 15.3 µM | 10.7 µM | 24.3 µM
4 | COc1ccc(-c2cs/c(=N\N=C\c3ccc(O)cc3O)n2/N=C/c2ccc(O)cc2O)cc1 | 2.21 µM | 5.84 µM | 1.9 µM | 5.84 µM | 1.79 µM | 5.05 µM | 1.89 µM | 4.62 µM | 2.31 µM | 5.02 µM | 1.63 µM | 3.21 µM | 2.18 µM | 5.35 µM | 1.73 µM | 5.12 µM | 1.86 µM | 3.91 µM | 2.46 µM | 6.84 µM
5 | CN(CCCCCl)P(=O)(OCCS(=O)(=O)CC(NC(=O)CCC(N)C(=O)O)C(=O)NC(C(=O)O)c1ccccc1)OCC1OC(n2ccc(N)nc2=O)C(F)(F)C1O (centres undefined) | 0.0359 µM | 25.9 µM | – | > 100 µM | 0.146 µM | > 70.1 µM | 0.125 µM | > 100 µM | 0.784 µM | > 100 µM | 0.0369 µM | 0.435 µM | 0.59 µM | > 50.9 µM | 8.92 µM | > 100 µM | 0.23 µM | > 100 µM | 0.143 µM | > 100 µM
6 | CC(=O)c1ccc2c(c1)C1C=CCC1[C@H](c1cc3c(cc1Br)OCO3)N2 (some centres undefined) | 0.893 µM | 4.44 µM | 0.368 µM | 18.9 µM | 1.03 µM | 7.77 µM | 2.03 µM | > 34.4 µM | 1.47 µM | 17.8 µM | 0.765 µM | 5.38 µM | 1.64 µM | > 33 µM | 1.24 µM | 20.6 µM | 1.1 µM | 11.9 µM | 1.87 µM | 33.2 µM
7 | COc1cc(F)c(F)c(Nc2ccc(I)cc2F)c1NS(=O)(=O)C1(C[C@H](O)CO)CC1 | 5.02 µM | > 10 µM | > 5.31 µM | > 10 µM | > 6.02 µM | > 10 µM | 0.628 µM | > 10 µM | 3.42 µM | > 10 µM | 0.0242 µM | 1.59 µM | 1.9 µM | > 10 µM | 1.67 µM | > 10 µM | 2.09 µM | > 10 µM | 1.83 µM | > 10 µM
8 | COC(=O)C1C(O)CCC2CN3CCc4c([nH]c5ccccc45)C3CC21 (centres undefined) | – | > 100 µM | – | > 100 µM | > 100 µM and 14.4 µM | > 100 µM | – | > 100 µM | – | > 100 µM | – | > 100 µM | – | > 100 µM | – | > 100 µM | – | > 100 µM | > 100 µM | > 100 µM
9 | O=C(NOC[C@H](O)CO)c1ccc(F)c(F)c1Nc1ccc(I)cc1F | 11.3 µM and 1.67 µM | > 100 µM | > 76.5 µM | > 100 µM | 57.9 µM and > 10 µM | > 100 µM | 0.946 µM and 0.1 µM | > 100 µM | – | > 100 µM | < 0.01 µM and 0.00132 µM | 0.0969 µM | – | > 100 µM | 2.73 µM and 0.919 µM | > 100 µM | 1.05 µM and 0.662 µM | > 100 µM | 20.6 µM | > 100 µM
10 | O=C1c2ccccc2-[n+]2ccc3c([nH]c4ccccc43)c21 | – | 2.54 µM | – | 0.834 µM | – | 0.613 µM | – | 2.7 µM | – | 6.27 µM | – | 0.365 µM | – | 0.687 µM | – | > 100 µM | – | 1.47 µM | – | 2.27 µM
11 | COc1ccc(NC(=O)CSC2=C(Nc3cccc(Br)c3)C(=O)N(Cc3ccccc3)C2=O)cc1Cl | > 100 µM | > 100 µM | 15.9 µM | > 100 µM | 1.73 µM | > 100 µM | 62.4 µM | > 100 µM | > 100 µM | > 100 µM | > 100 µM | > 100 µM | > 100 µM | > 100 µM | > 100 µM | > 100 µM | 35.5 µM | > 100 µM | > 100 µM | > 100 µM
12 | Nc1nonc1-c1nc2cnccc2n1C1CC1 | 10.6 µM | > 25 µM | 6.05 µM | > 17.3 µM | 12.1 µM | > 25 µM | 6.39 µM | > 25 µM | 4.36 µM | 18.4 µM | 14.1 µM | > 25 µM | 7.03 µM | > 25 µM | 6.61 µM | > 25 µM | 9.09 µM | > 25 µM | 12 µM | > 25 µM
13 | O=[N+]([O-])c1cc(Cl)c2[nH]c3c(Cl)cc([N+](=O)[O-])cc3c2c1 | 0.508 µM | > 100 µM | 0.284 µM | > 100 µM | 0.329 µM | > 100 µM | 0.302 µM | 2.9 µM | 0.468 µM | 5.8 µM | 0.458 µM | > 54.7 µM | 0.296 µM | > 100 µM | 0.355 µM | > 100 µM | 0.286 µM | 5.43 µM | 0.357 µM | > 100 µM
